According to PubChem BioAssay AID1963851 (Molecular Pharmacology Branch, DTP, NCI, 2024):
Several values for one entry are separate records, joined by “and”; a condition that tells them apart may be missing. Equal entries are not always repeated.

Test system: 188146-221-R-J1-PDC complex spheroid viability
Assay: Anticancer human tumor 188146-221-R-J1-PDC patient-derived colon adenocarcinoma cell line growth inhibition [POLQ]
Conditions: for viability, T/C: stronger effect = lower value; active = viability on the fitted dose curve at most 10% of control; inactive = the rest
Procedure: Multicellular complex tumor spheroid response to Polymerase (POL) inhibitors (novobiocin, ART-558, RP6685) in combination with a variety of drugs and investigational agents in selected tumor cell lines
The POL inhibitors (novobiocin, ART-558, and RP6685) were evaluated both individually and in combination with standard of care and investigational anticancer small molecules within a complex spheroid model of solid tumors. . Complex spheroids include a stromal component modeled by human endothelial cells (HUVEC) and fibroblasts modeled by human mesenchymal stem cells (MSCs). The concentration ranges selected for each drug and investigational agent were based upon clinically achievable concentrations if the clinical Cmax of the agent was known.
Compounds. The drugs and investigational agents: novobiocin (NSC847541), ART-558 (NSC835418), RP-6685 (NSC848927), peposertib (NSC802822), ceralasertib (NSC780249), elimusertib (NSC800525), camonsertib (NSC841442), AZD-1390 (NSC803789), olaparib (NSC753686), talazoparib (NSC767125), rucaparib (NSC756644), sotorasib (NSC818433), MRTX-1133 (NSC836407), SN-38 (NSC673596), topotecan (NSC609699), epotoside (NSC141540), doxorubicin (NSC123127), gemcitabine (NSC613327), 5-fluorouracil (NSC19893), paclitaxel (NSC125973), vemurafenib (NSC761431), MSA-2 (NSC828583), SN-011 (NSC837082), adavosertib (NSC754352), prexasertib (NSC758257), carboplatin (NSC241240) and oxaliplatin (NSC266046), were obtained from the National Cancer Institute (NCI) Developmental Therapeutics Program Chemical Repository (21). The FDA-approved anticancer drug set is available from the Developmental Therapeutics Program at https://dtp.cancer.gov/organization/dscb/obtaining/. […] The stock solutions were prepared in dimethyl sulfoxide (DMSO, Sigma-Aldrich, St. Louis, MO, cat. D2650), except for the platinum compounds which were prepared in saline (Quality Biological, Gaithersburg, MD, cat. 114-055-101), at 800-fold the tested concentration and stored at -70 degrees C prior to their use. All drugs and investigational agents were tested over a range starting from a high concentration at or near the clinical Cmax and decreasing in half-log increments. If the clinical Cmax for an agent had not been determined, the highest concentration tested was 10 microM, except for SN-38, which was tested at a high concentration of 1 microM.
Cell Culture. All cells were maintained in an incubator at 37 degrees C and 5% CO2 with 95% humidity. The PDC lines were cultured according to standard operating procedures established by the NCI PDMR (https://pdmr.cancer.gov). Table 3 of the manuscript, lists the cell lines along with the number of the three cell types plated to form the mct-spheroids and media for tumor cell growth. After thawing, all PDC lines, except 997537-175-T-J1-PDC and 415267-285-R-J2-PDC, were cultured in Matrigel-coated flasks prepared with a working solution of 1X Ham's F-12 nutrient mix, without supplementation (Thermo Fisher Scientific, cat. 11765054), 100 U/mL penicillin-streptomycin (Thermo Fisher Scientific, cat. 15140122), and 2.5% Matrigel (Corning Inc., Corning, NY, cat. 354248) for the first three passages. The two PDC lines 997537-175-T-J1-PDC and 415267-285-R-J2-PDC were cultured on uncoated flasks. The 857933-349-R-J2-PDC line was cultured in 6C/Colon 1B media containing advanced DMEM/F-12 (Thermo Fisher Scientific, cat. 12634028), 10 mM HEPES (Thermo Fisher Scientific, cat. 15630080), 1X GlutaMAX supplement (Thermo Fisher Scientific, cat. 35050061), 0.1 mg/mL primocin (InvivoGen, San Diego, CA, cat. ant-pm-2), 10% defined fetal bovine serum, heat inactivated (HyClone Laboratories Inc., Logan, UT, cat. SH30070.03HI), 50% L-WRN conditioned media (ATCC, cat. CRL-3276), 1.25 mM N-Acetyl-L-cysteine (Sigma-Aldrich, cat. A9165), 10 mM nicotinamide (Sigma-Aldrich, cat. N0636), 1X B-27 supplement (Thermo Fisher Scientific, cat. 17504044), 1X N-2 supplement (Thermo Fisher Scientific, cat. […]
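Note: spheroids exposed to compounds for seven days.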

COC1C(OC(N)=O)C(O)C(Oc2ccc3c(O)c(NC(=O)c4ccc(O)c(CC=C(C)C)c4)c(=O)oc3c2C)OC1(C)C (stereo not drawn)
> 10 µM: IC50 (compound alone, run of 10/31/2023)
inactive: viability, T/C (compound 0.0316 µM) 103% [middle of 12 runs] | viability, T/C (compound 0.316 µM) 102% [middle of 13 runs] | viability, T/C (compound 1 µM) 105% [middle of 13 runs] | viability, T/C (compound 3.16 µM) 107% [middle of 13 runs] | viability, T/C (compound 10 µM) 108% [middle of 13 runs]

CC(=O)O[C@H]1C(=O)[C@@]2(C)[C@H]([C@H](OC(=O)c3ccccc3)[C@]3(O)C[C@H](OC(=O)[C@H](O)[C@@H](NC(=O)c4ccccc4)c4ccccc4)C(C)=C1C3(C)C)[C@]1(OC(C)=O)CO[C@@H]1C[C@@H]2O
0.0122 µM and 0.0133 µM and 0.0174 µM: IC50 (curve of compound)
inactive: viability, T/C (compound 0.00949 µM) 58.2% and 63% and 74.9% | viability, T/C (compound 0.03 µM) 20.7% and 18.6% and 27.6% | viability, T/C (compound 0.0949 µM) 13.3% and 12.8% and 9.47% | viability, T/C (compound 0.3 µM) 11.7% and 11.9% and 11.2% | viability, T/C (compound 0.949 µM) 15.4% and 12.2% and 9.82% | viability, T/C (compound 3 µM) 13.5% and 12.8% and 9.87%

CC1COCCN1c1cc(C2(S(C)(=N)=O)CC2)nc(-c2ccnc3[nH]ccc23)n1 (stereo not drawn)
inactive: viability, T/C (compound 0.0316 µM) 100% and 105% and 99.8% | viability, T/C (compound 0.1 µM) 95.1% and 99.5% and 101% | viability, T/C (compound 0.316 µM) 89.3% and 114% and 98% | viability, T/C (compound 1 µM) 94.8% and 91.6% and 89.8% | viability, T/C (compound 3.16 µM) 68.1% and 61.6% and 60.5% | viability, T/C (compound 10 µM) 23.7% and 27.7% and 21.9%
5.05 µM and 4.62 µM and 4.33 µM: IC50 (curve of compound)

Nc1ccn(C2OC(CO)C(O)C2(F)F)c(=O)n1 (stereo not drawn)
< 0.0316 µM and 0.0364 µM: IC50 (curve of compound)
inactive: viability, T/C (compound 0.0316 µM) 27.1% and 27.6% and 53.7% | viability, T/C (compound 0.1 µM) 17.8% and 15.8% and 24.2% | viability, T/C (compound 0.316 µM) 13.2% and 15.2% and 14.9% | viability, T/C (compound 1 µM) 16.1% and 16.9% and 13.9% | viability, T/C (compound 3.16 µM) 15.9% and 19.2% and 16.6% | viability, T/C (compound 10 µM) 10.9% (2×) and 15.4%

C=CC(=O)N1CCN(c2nc(=O)n(-c3c(C)ccnc3C(C)C)c3nc(-c4c(O)cccc4F)c(F)cc23)C(C)C1 (stereo not drawn)
> 10 µM: IC50 (curve of compound)
inactive: viability, T/C (compound 0.0316 µM) 113% and 101% and 99.7% | viability, T/C (compound 0.1 µM) 104% and 89.7% and 107% | viability, T/C (compound 0.316 µM) 95.9% and 90.8% and 87.1% | viability, T/C (compound 1 µM) 109% and 113% and 108% | viability, T/C (compound 3.16 µM) 92.2% and 92.1% and 101% | viability, T/C (compound 10 µM) 68% and 102% and 77.7%

CCCS(=O)(=O)Nc1ccc(F)c(C(=O)c2c[nH]c3ncc(-c4ccc(Cl)cc4)cc23)c1F + Cc1cccc(N(C)C(=O)C2C(O)CCN2c2nc(C)cc(C(F)(F)F)c2C#N)c1
6.44 µM: IC50 (curve of first compound, second compound 1 µM)
6.82 µM: IC50 (curve of first compound, second compound 0.1 µM)
6.53 µM: IC50 (curve of first compound, second compound 0.316 µM)
7.14 µM: IC50 (curve of first compound, second compound 3.16 µM)
5.88 µM: IC50 (curve of first compound, second compound 10 µM)
inactive: viability, T/C (second compound 0.0316 µM, first compound 0.0316 µM) 117% | viability, T/C (second compound 0.0316 µM, first compound 0.1 µM) 96.5% | viability, T/C (second compound 0.0316 µM, first compound 0.316 µM) 102% | viability, T/C (second compound 0.0316 µM, first compound 1 µM) 87.1% | viability, T/C (second compound 0.0316 µM, first compound 3.16 µM) 78.8% | viability, T/C (second compound 0.0316 µM, first compound 10 µM) 47.3% | viability, T/C (second compound 0.1 µM, first compound 0.0316 µM) 113% | viability, T/C (second compound 0.1 µM, first compound 0.1 µM) 97.3% | viability, T/C (second compound 0.1 µM, first compound 0.316 µM) 106% | viability, T/C (second compound 0.1 µM, first compound 1 µM) 91% | viability, T/C (second compound 0.1 µM, first compound 3.16 µM) 85.8% | viability, T/C (second compound 0.1 µM, first compound 10 µM) 33.4% | viability, T/C (second compound 0.316 µM, first compound 0.0316 µM) 116% | viability, T/C (second compound 0.316 µM, first compound 0.1 µM) 112% | viability, T/C (second compound 0.316 µM, first compound 0.316 µM) 99.2% | viability, T/C (second compound 0.316 µM, first compound 1 µM) 88.3% | viability, T/C (second compound 0.316 µM, first compound 3.16 µM) 90.9% | viability, T/C (second compound 0.316 µM, first compound 10 µM) 29.2% | viability, T/C (second compound 1 µM, first compound 0.0316 µM) 93.4% | viability, T/C (second compound 1 µM, first compound 0.1 µM) 98.1% | viability, T/C (second compound 1 µM, first compound 0.316 µM) 101% | viability, T/C (second compound 1 µM, first compound 1 µM) 90.6% | viability, T/C (second compound 1 µM, first compound 3.16 µM) 81.5% | viability, T/C (second compound 1 µM, first compound 10 µM) 30.7% | viability, T/C (second compound 3.16 µM, first compound 0.0316 µM) 107% | viability, T/C (second compound 3.16 µM, first compound 0.1 µM) 104% | viability, T/C (second compound 3.16 µM, first compound 0.316 µM) 104% | viability, T/C (second compound 3.16 µM, first compound 1 µM) 77.4% | viability, T/C (second compound 3.16 µM, first compound 3.16 µM) 96.4% | viability, T/C (second compound 3.16 µM, first compound 10 µM) 31% | viability, T/C (second compound 10 µM, first compound 0.0316 µM) 106% | viability, T/C (second compound 10 µM, first compound 0.1 µM) 97.7% | viability, T/C (second compound 10 µM, first compound 0.316 µM) 105% | viability, T/C (second compound 10 µM, first compound 1 µM) 85.1% | viability, T/C (second compound 10 µM, first compound 3.16 µM) 92.6% | viability, T/C (second compound 10 µM, first compound 10 µM) 13.4%
9.75 µM: IC50 (curve of first compound, second compound 0.0316 µM)

CC1COCCN1c1cc(C2(O)CC3CCC(C2)O3)c2cnn(-c3ccn[nH]3)c2n1 (stereo not drawn)
inactive: viability, T/C (compound 0.0316 µM) 92% and 93.4% and 87% | viability, T/C (compound 0.1 µM) 84.8% and 75% and 73.3% | viability, T/C (compound 0.316 µM) 44.9% and 50.6% and 53.1% | viability, T/C (compound 1 µM) 28.2% and 28.1% and 26% | viability, T/C (compound 3.16 µM) 21.8% and 18.4% and 19.3%
6.59% and 6.67% and 8.27%: viability, T/C (compound 10 µM)
0.321 µM and 0.329 µM and 0.342 µM: IC50 (curve of compound)
